The values that follow come from EPA's ToxValDB 9.5 (doi:10.2903/j.efsa.2010.1833).

Converted amounts (≈) assume the structure as drawn.

Data set [1] concerns Colinus virginianus.
Data set [2] has as its system Pleurozium sp. The conditions noted are these: acute; duration: 72 hours.
Data set [3] relates to Anas platyrhynchos.
Data set [4] relates to Folsomia candida. To be noted: chronic/long-term; duration: 28 days; mortality.
Data set [5] has as its system Aleochara bilineata. To be noted: chronic/long-term; duration: 77 days; reproduction.
The subject of data set [6] is Coturnix japonica. To be noted: acute; oral; diet; mortality.
The test system of data set [7] is Lepomis macrochirus. To be noted: acute; duration: 96 hours; mortality.
For data set [8], the system named is Rattus norvegicus. To be noted: for LD50: acute, mortality.
Data set [9] deals with Landoltia sp. To be noted: chronic/long-term; duration: 14 days; other.
For data set [10], the system named is Tagia sp. The conditions noted are these: acute; duration: 14 days; mortality.
Data set [11] deals with Mus musculus. The conditions noted are these: acute, oral, mortality.
Data set [12] deals with Canidae. To be noted: subchronic; duration: 90 days; oral; gavage; Dog Other; body weight.

The NOAEL is the highest tested level that showed no adverse finding. As for `CN1CSC(=S)N(C)C1` [Dazomet], the LC50 was 197 mg/kg-day in data set [1] (acute, oral, diet, mortality); over 341 mg/kg-day in data set [3] (short-term, oral, feed, mortality); over 1220 mg/kg-day in data set [6]; 0.3 mg/L (≈ 1.85 µM) in data set [7]; 6.5 mg/kg in [10]. The LD50 is over 415 mg/kg-day in data set [1] (acute, oral, mortality); 415 mg/kg-day in data set [8] (oral, F); 596 mg/kg-day in [8] (oral, M). Also, the NOEL in data set [1] (reproduction developmental) was 10.6 mg/kg-day; in data set [3] (reproductive) it was 16.7 mg/kg-day. For the same compound, the figures for the NOEC in data set [2] and in data set [9] were 0.056 mg/L and 0.306 mg/L, respectively. For the same compound, the LEL in data set [4] and in data set [5] was 485000 g/ha in each case. The NOAEL in data set [8] (chronic, duration: 2 years, oral, diet, hematological) is 0.9 mg/kg-day; in data set [8] (developmental, development), 3 mg/kg-day; in data set [8] (reproduction developmental, reproduction), 18 mg/kg-day; in data set [8] (subchronic, duration: 90 days, oral, diet, organ weight), 1.5 mg/kg-day.

As for `CN=C=S` [Methyl isothiocyanate], the LD50 in data set [11] (F) worked out at 100 mg/kg-day; in [11] (M), 120 mg/kg-day. Moreover, the NOAEL was 3 mg/kg-day in [8] (reproduction developmental, body weight) and 0.4 mg/kg-day in [12].
